Assay [1] concerns totality of B. longum + B. bifidum + B. animalis lactis + B. angulatum. Briefly: Healthy adult study, ITS profiling of the Bifidobacterium community in faecal samples. Type of assay: in vivo, human. The following applies: healthy adults. How it is done: (§1) A total of 100 male and female healthy adults are recruited to participate in the study. After a screening visit and run-in period of 1-2 weeks, the participants are selected and randomized into ten groups, each of 10 subjects. One group is administered daily a placebo product containing 2 grams of glucose. The remaining 9 groups are administered daily a treatment product containing one of the following: a) 20 g of 2′-FL, b) 10 g of 2′-FL, c) 5 g of 2′-FL, d) 20 g of LNnT, e) 10 g of LNnT, f) 5 g of LNnT, g) 20 g of a 2:1 mixture of 2′-FL and LNnT, h) 10 g of a 2:1 mixture of 2′-FL and LNnT, and i) 5 g of a 2:1 mixture of 2′-FL and LNnT for 2 weeks. The placebo and treatment products are in powder form in a unit dosage container.
(§2) The study runs for 2 weeks with the participants consuming either a placebo or a treatment product daily. Participants are instructed to consume the products in the morning with breakfast. Compliance is monitored through the interactive internet enabled system.
(§3) To assess the Bifidobacterium community, ITS profiling of DNA samples is performed according to Milani et al, FEMS Microbiol. Ecol. 90, 493 (2014). […] Both B. adolescentis and B. pseudocatenulatum are members of the B. adolescentis phylogenetic group. It can be seen that oral ingestion of the HMOs clearly increases the abundance of B. adolescentis and/or B. pseudocatenulatum in the microbiota of healthy adults, as well as its relative abundance compared to the totality of other Bifidobacterium species.

Assay [2] has as its system B. adolescentis phylogenetic group. The assay is described as above. Type of assay: in vivo, human. The following applies: healthy adults. On the procedure: as §1, §2, §3

Two compounds from patent US11998558B2, “Synthetic composition for treating antibiotic associated complications” (GLYCOM A/S, priority 2015, dated 2024) can be followed below.

As for 2′-fucosyllactose [2′-FL], the “percentage increase of totality of B. longum + B. bifidum + B. animalis lactis + B. angulatum in human faeces after consumption of HMOs” value in assay [1] (5 g daily for 2 weeks) is recorded as 0%; in assay [1] (10 g daily for 2 weeks) it was 20%; in assay [1] (20 g daily for 2 weeks) it was 15%. The “percentage increase of B. adolescentis phylogenetic group in human faeces after consumption of HMOs” value amounted to 50% in assay [2] (5 g daily for 2 weeks), 325% in assay [2] (10 g daily for 2 weeks) and 120% in assay [2] (20 g daily for 2 weeks).
In the case of `CC(=O)N[C@H]1[C@H](O[C@H]2[C@@H](O)[C@@H](CO)O[C@@H](O[C@H]3[C@H](O)[C@@H](O)C(O)O[C@@H]3CO)[C@@H]2O)O[C@H](CO)[C@@H](O[C@@H]2O[C@H](CO)[C@H](O)[C@H](O)[C@H]2O)[C@@H]1O` (mixture of isomers) [LNnT, lacto-N-neotetraose], the “percentage increase of totality of B. longum + B. bifidum + B. animalis lactis + B. angulatum in human faeces after consumption of HMOs” value in assay [1] (5 g daily for 2 weeks) turned out to be 50%; in assay [1] (10 g daily for 2 weeks) it was 130%; in assay [1] (20 g daily for 2 weeks) it was 105%. For the same compound, the “percentage increase of B. adolescentis phylogenetic group in human faeces after consumption of HMOs” value is reported as 90% in assay [2] (5 g daily for 2 weeks), 195% in assay [2] (10 g daily for 2 weeks) and 185% in assay [2] (20 g daily for 2 weeks).
